Measurements: US7605142B2, “Expression of cyclin G1 in tumors” (University of Southern California, priority 1995, dated 2009)

System: MG-63 cells
Experiment: Ganciclovir cytotoxicity/bystander effects in HStk vector transduced MG-63 cells
Type: cell-based, human
Details: GCV 20 μg/ml, 10 days
Method: Initial dose-response studies determined the sensitivity of MG-63 cells and the optimal concentrations of G418 used to select transduced cells. Upon G418 selection, varying proportions of HStk-transduced and non-transduced MG-63 cells (plating density 2.5×10^4 cells) were exposed to 20 μg GCV/ml D10 in each of six-well plates, for 10 days. […] Bystander effects of GCV treatment were compared to those in HStk-transduced NIH 3T3 cells (ATCC No. CRL 1658).

Nc1nc(O)c2ncn(COC(CO)CO)c2n1 [GCV, ganciclovir]
degree of confluency (10% HStk+/90% HStk− MG-63 cells): 15%
degree of confluency (30% HStk+/70% HStk− MG-63 cells): 15%
degree of confluency (50% HStk+/50% HStk− MG-63 cells): 10%
degree of confluency (100% HStk− (non-transduced) MG-63 cells): 75%
degree of confluency (greater than 50% HStk+ MG-63 cells): < 10%
